Source: US9975868B2, “7,8-dihydoxyflavone and 7,8-substituted flavone derivatives, compositions, and methods related thereto” (EMORY UNIVERSITY, priority 2012, dated 2018)
Entries after “also recorded” stand apart in the source; their conditions may differ.

Key:
TrkB = biological target: T1, TrkB (Mus musculus, UniProt P15209); experiment: TrkB signaling in mouse brain by immunoblotting after oral administration; format: in vivo; details: R7 78 mg/kg oral
T1 construct: from tissue; host or cells: mouse brain (lysates after oral dosing)
Protocol: R7 (78 mg/kg equal to about 50 mg/kg of 7,8-DHF) was administered orally. The mice were sacrificed at different intervals. The brain lysates were analyzed by immunobotting with various antibodies including p-TrkB 816, Total TrkB, p-Akt and total Akt.
The TrkB signaling in mouse brains was monitored from the in vivo PK study. […] The pharmacodynamic (PD) study fits well with the in vivo PK data, underscoring that the released 7,8-DHF from R7 triggers the long-lasting TrkB signalings in mouse brain.

[1] = chemical stability in pH 1.2 and 7.4 buffer; format: physicochemical
Protocol: Metabolism studies indicate that the catechol group is conjugated by glucuronidation, sulfation and methylation in liver, which leads to the poor oral bioavailability upon oral administration. […] Most of 7,8-DHF is conjugated and metabolized within 30 min. Derivatives with various moieties on the catechol group in 7,8-DHF were synthesized. These derivatives were monitored for intestine microsomal stability, liver microsomal stability and plasma stability. In addition, compounds with favorable chemical stability and Caco-2 permeability were examined.
R7 and R13 were chosen to analyze their in vivo PK profiles. The concentration of 7,8-DHF's in brain was examined at different time points after oral administrated 72.5 mg/kg, which is the molecular equivalent of 50 mg/kg of 7,8-DHF. In plasma, 7,8-DHF peaked at around 100 min for R13, whereas administration of the parent compound 7,8-DHF, occurred at 10 min. The oral bioavailability of R13 was around 10%.

[2] = in vivo PK study, plasma 7,8-DHF after oral administration; set-up: species or system mice
Protocol: Two months old mice were orally administrated 78 mg/kg of the R7, and mice were sacrificed at different time points (n=3), the plasma was then harvested and analyzed by HPLC/MS.
Derivatives with various moieties on the catechol group in 7,8-DHF were synthesized. These derivatives were monitored for intestine microsomal stability, liver microsomal stability and plasma stability.

[3] = brain 7,8-DHF concentration after oral administration; format: in vivo, mice
[4] = system: mouse model of Alzheimer's disease; details: cited from earlier work

T1 sequence (P15209 32-821): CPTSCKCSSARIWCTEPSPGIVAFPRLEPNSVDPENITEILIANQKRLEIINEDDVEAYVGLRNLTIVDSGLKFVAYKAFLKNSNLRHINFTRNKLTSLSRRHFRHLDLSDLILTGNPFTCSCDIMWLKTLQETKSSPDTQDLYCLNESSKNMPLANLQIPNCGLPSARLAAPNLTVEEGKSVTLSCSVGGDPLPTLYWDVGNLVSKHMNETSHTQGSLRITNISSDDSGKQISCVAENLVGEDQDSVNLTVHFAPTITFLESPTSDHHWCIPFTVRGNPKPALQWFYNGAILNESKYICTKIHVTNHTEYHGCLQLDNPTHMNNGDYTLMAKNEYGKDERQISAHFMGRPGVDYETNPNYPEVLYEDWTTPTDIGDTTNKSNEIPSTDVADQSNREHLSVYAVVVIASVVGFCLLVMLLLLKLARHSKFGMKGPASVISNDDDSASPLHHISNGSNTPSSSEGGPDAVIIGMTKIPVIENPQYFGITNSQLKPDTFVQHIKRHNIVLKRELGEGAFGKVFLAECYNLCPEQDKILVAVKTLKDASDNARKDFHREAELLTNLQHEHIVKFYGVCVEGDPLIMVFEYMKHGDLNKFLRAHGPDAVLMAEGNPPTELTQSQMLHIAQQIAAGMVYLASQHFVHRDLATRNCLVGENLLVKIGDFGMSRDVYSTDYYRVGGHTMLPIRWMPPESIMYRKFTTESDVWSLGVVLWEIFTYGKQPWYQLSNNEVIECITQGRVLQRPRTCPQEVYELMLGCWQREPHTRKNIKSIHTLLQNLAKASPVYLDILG

CN(C)C(=O)Oc1ccc2c(=O)cc(-c3ccccc3)oc2c1OC(=O)N(C)C [R7, 4-oxo-2-phenyl-4H-chromene-7,8-diyl bis(dimethylcarbamate)]
TrkB activation (p-TrkB) in mouse brain (TrkB): potently activated; also recorded: triggers TrkB activation
downstream p-Akt signaling activation in mouse brain (TrkB): potently activated; also recorded: downstream Akt signaling activation
chemical stability in buffer ([1]; pH 1.2): stable
chemical stability in buffer ([1]; pH 7.4): stable
7,8-DHF plasma concentrations compared with parent compound ([2]; R7 78 mg/kg vs 7,8-DHF 50 mg/kg P.O.): higher than parent compound
7,8-DHF detectable in plasma ([2]; at 8 h after oral R7): detectable

O=c1cc(-c2ccccc2)oc2c(O)c(O)ccc12 [7,8-DHF, 7,8-dihydroxyflavone, reference compound]
7,8-DHF detectability in brain ([3]; oral administration of parent compound): not detectable after 4 h
memory deficits and BACE1 elevation [4]: reverses
time within which most is conjugated and metabolized ([2]; C57BL6, mouse, in vivo): ≤ 30 min
bioavailability ([2]; C57BL6, mouse, in vivo, po): ~5%

CNC(=O)Oc1ccc2c(=O)cc(-c3ccccc3)oc2c1OC(=O)NC [R13, 4-oxo-2-phenyl-4H-chromene-7,8-diyl bis(methylcarbamate)]
7,8-DHF oral bioavailability and brain concentrations versus parent compound ([3]; FIG. 4, oral administration): improves
7,8-DHF brain availability ([3]; oral 72.5 mg/kg): significantly elongated
